Results from patent US20120095067A1, “PHARMACEUTICAL COMPOSITION CONTAINING CARBOXYLOSARTAN AND A PRODUCTION METHOD THEREFOR” (JIN YANG PHARM. CO., LTD., priority 2009, published 2012).

Legend:
[1] = relative to losartan; cited from earlier work
[2] = Dissolution experiment, paddle method, 900 ml medium, 50 rpm; assay type: physicochemical
Description: By using the prepared Comparative example 1, dissolution experiments was made in a buffer having a pH of 1.2 (prepared by mixing 2.0 g of sodium chloride with 7.0 ml of hydrochloric acid and adding purified water until it totals 1 liter), a buffer having a pH of 4.0 (prepared by mixing 0.05 mol/L acetic acid solution with 0.05 mol/L sodium acetate solution (41:9) and adjusting a pH to 4.0), a buffer having a pH of 6.8 (prepared by mixing 250 ml of 0.2 mol/L potassium dihydrogen phosphate test solution with 118 ml of 0.2 mol/L sodium hydroxide test solution and adding water until it totals 1 liter), and purified water. In this instance, a paddle method was used, an amount of a dissolution medium was 900 ml, and a paddle rotation rate was 50 rpm. Like Comparative example 1, the dissolution of Examples 1-4 in a buffer having a pH of 1.2 was evaluated. Like Example 1, the dissolution of Examples 5-10 in a buffer having a pH of 1.2 was evaluated. Like Comparative example 1, the dissolution of Example 9 in different dissolution media was evaluated.

CCCCc1nc(Cl)c(C(=O)O)n1Cc1ccc(-c2ccccc2-c2nnn[nH]2)cc1 [losartan carboxylic acid, 2-butyl-4-chloro-1-[(2′-(1H-tetrazol-5-yl)[1,1′-biphenyl]-4-yl)methyl]-1H-imidazole-5-carboxylic acid]
half life compared with losartan [1]: longer | behaviour on contact with purified water or a buffer [2]: gelled
